Data: ChEMBL document CHEMBL3352263, “Synthesis and biological evaluation of bivalent cannabinoid receptor ligands based on hCB₂R selective benzimidazoles reveal unexpected intrinsic properties” (Bioorg Med Chem, 2014)

Legend:
[1] = biological target: T1, Cannabinoid receptor 2 (Homo sapiens, UniProt P34972); assay: Agonist activity at human CB2 receptor expressed in Sf9 cells coexpressing Galpha i2 assessed as Galpha GTPase activity using [gamma-33P]GTP at 100 uM by scintillation counting
[2] = biological target: T1, Cannabinoid receptor 2; assay: Antagonist activity at human CB2 receptor expressed in Sf9 cells coexpressing Galpha i2 assessed as Galpha GTPase activity using [gamma-33P]GTP at 100 uM by scintillation counting in presence of 30 nM CP55940; format: functional
[3] = biological target: T1, Cannabinoid receptor 2; assay: Agonist activity at human CB2 receptor expressed in Sf9 cells coexpressing Galpha i2 assessed as Galpha GTPase activity using [gamma-33P]GTP by scintillation counting
[4] = biological target: T2, Cannabinoid receptor 1 (Homo sapiens, UniProt P21554); assay: Agonist activity at human CB1 receptor expressed in Sf9 cells coexpressing Galpha i2 assessed as Galpha GTPase activity using [gamma-33P]GTP at 100 uM by scintillation counting
[5] = biological target: T2, Cannabinoid receptor 1; assay: Antagonist activity at human CB1 receptor expressed in Sf9 cells coexpressing Galpha i2 assessed as Galpha GTPase activity using [gamma-33P]GTP at 100 uM by scintillation counting in presence of 30 nM CP55940; format: functional
[6] = biological target: T1, Cannabinoid receptor 2; assay: Inverse agonist activity at human CB2 receptor expressed in Sf9 cells coexpressing Galpha i2 assessed as Galpha GTPase activity using [gamma-33P]GTP by scintillation counting in presence of CP55940
[7] = biological target: T2, Cannabinoid receptor 1; assay: Inverse agonist activity at human CB1 receptor expressed in Sf9 cells coexpressing Galpha i2 assessed as Galpha GTPase activity using [gamma-33P]GTP by scintillation counting in presence of CP55940
[8] = biological target: T2, Cannabinoid receptor 1; assay: Agonist activity at human CB1 receptor expressed in Sf9 cells coexpressing Galpha i2 assessed as Galpha GTPase activity using [gamma-33P]GTP by scintillation counting
[9] = biological target: T1, Cannabinoid receptor 2; assay: Antagonist activity at human CB2 receptor expressed in Sf9 cells coexpressing Galpha i2 assessed as Galpha GTPase activity using [gamma-33P]GTP by scintillation counting in presence of 30 nM CP55940; format: functional
[10] = species on record: Homo sapiens; assay: Selectivity ratio of EC50 for human CB1 receptor to EC50 for human CB2 receptor

T2 sequence (P21554 whole entry): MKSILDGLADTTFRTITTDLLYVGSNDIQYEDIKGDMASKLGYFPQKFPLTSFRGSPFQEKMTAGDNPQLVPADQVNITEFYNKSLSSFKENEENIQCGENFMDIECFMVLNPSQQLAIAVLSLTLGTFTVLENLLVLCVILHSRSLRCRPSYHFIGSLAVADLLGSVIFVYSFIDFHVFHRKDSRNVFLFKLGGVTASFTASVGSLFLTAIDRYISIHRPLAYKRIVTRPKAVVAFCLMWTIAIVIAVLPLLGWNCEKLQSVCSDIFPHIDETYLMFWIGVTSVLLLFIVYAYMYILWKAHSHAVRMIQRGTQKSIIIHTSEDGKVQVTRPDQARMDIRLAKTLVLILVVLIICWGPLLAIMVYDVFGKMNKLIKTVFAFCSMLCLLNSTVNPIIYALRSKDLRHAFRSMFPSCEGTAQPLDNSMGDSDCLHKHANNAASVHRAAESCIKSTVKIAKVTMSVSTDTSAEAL
T1 sequence (P34972 whole entry): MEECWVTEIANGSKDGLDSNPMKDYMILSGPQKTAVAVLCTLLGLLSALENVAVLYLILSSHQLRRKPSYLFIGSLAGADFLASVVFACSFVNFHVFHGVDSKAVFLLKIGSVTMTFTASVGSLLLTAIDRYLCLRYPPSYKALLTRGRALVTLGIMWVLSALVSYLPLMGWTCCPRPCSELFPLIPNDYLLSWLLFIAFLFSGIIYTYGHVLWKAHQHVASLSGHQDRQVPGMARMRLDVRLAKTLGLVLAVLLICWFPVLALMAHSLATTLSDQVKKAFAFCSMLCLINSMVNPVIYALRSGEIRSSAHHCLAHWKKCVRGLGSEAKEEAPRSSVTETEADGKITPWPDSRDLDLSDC

Structure (SMILES)	Emax [1]	Emax [2]	EC50 [3]	Emax [4]	Emax [5]	EC50 [6]	EC50 [7]	EC50 [8]	EC50 [9]	Ratio EC50 [10]
CCOc1ccc(Cc2nc3cc(C(=O)OC)ccc3n2CCC(C)C)cc1	37%	121%	295 nM	-3%	98%	–	–	–	–	–
CCOc1ccc(Cc2nc3cc(C(=O)N(CC)CC)ccc3n2CCCCCCCCCCN(C)CCCCCCCCCCn2c(Cc3ccc(OCC)cc3)nc3cc(C(=O)N(CC)CC)ccc32)cc1	-11%	-33%	–	-97%	–	6.61 µM	6.31 µM	–	–	–
CCOc1ccc(Cc2nc3cc(C(=O)NCCCN(C)C)ccc3n2CCC(C)C)cc1	11%	65%	–	-5%	71%	–	–	–	–	–
COc1ccc(C(=O)c2c(C)n(CCN3CCOCC3)c3cc(I)ccc23)cc1	5%	15%	–	–	–	0.603 µM	–	–	–	–
Cc1c(C(=O)NN2CCCCC2)nn(-c2ccc(Cl)cc2Cl)c1-c1ccc(I)cc1	–	–	–	-84%	-8%	–	–	–	–	–
CCOc1ccc(Cc2nc3cc(C(=O)N(CC)CC)ccc3n2CCC(C)C)cc1	192%	167%	–	48%	–	–	–	3240 nM	–	–
CCOc1ccc(Cc2nc3cc(C(=O)N(CC)CC)ccc3n2CCCCCCCCCCN(C)C)cc1	1%	60%	–	-55%	–	31.6 µM	25.1 µM	–	–	–
CCOc1ccc(Cc2nc3cc(C(=O)N(CC)CC)ccc3n2CCCCN(C)CCCCn2c(Cc3ccc(OCC)cc3)nc3cc(C(=O)N(CC)CC)ccc32)cc1	5%	14%	–	-40%	–	57.5 µM	–	–	–	–
CCOc1ccc(Cc2nc3cc(C(=O)N(CC)CC)ccc3n2CCCN(C)C)cc1	106%	69%	–	-3%	95%	–	–	–	12.6 µM	–
CCOc1ccc(Cc2nc3cc(C(=O)NCCCCCCCCCCN(C)CCCCCCCCCCNC(=O)c4ccc5c(c4)nc(Cc4ccc(OCC)cc4)n5CCC(C)C)ccc3n2CCC(C)C)cc1	3%	28%	–	-42%	–	16.6 µM	25.7 µM	–	–	–
CCOc1ccc(Cc2nc3cc(C(=O)N(CC)CC)ccc3n2CCCN(C)CCCn2c(Cc3ccc(OCC)cc3)nc3cc(C(=O)N(CC)CC)ccc32)cc1	-2%	5%	–	-43%	–	12 µM	34.7 µM	–	–	–
Cc1ccc(Cn2nc(C(=O)NC3C4(C)CCC(C4)C3(C)C)cc2-c2ccc(Cl)c(C)c2)cc1 (stereo not given)	-3%	9%	–	–	–	–	–	–	–	–
CCOc1ccc(Cc2nc3cc(C(=O)NCCCCCCCCCCN(C)C)ccc3n2CCC(C)C)cc1	0%	20%	–	-58%	–	19.5 µM	24 µM	–	–	–
CCOc1ccc(Cc2nc3cc(C(=O)NCCCN(C)CCCNC(=O)c4ccc5c(c4)nc(Cc4ccc(OCC)cc4)n5CCC(C)C)ccc3n2CCC(C)C)cc1	-11%	-32%	–	-83%	–	2.88 µM	17.4 µM	–	–	–
CCCCn1c(Cc2ccc(OCC)cc2)nc2cc(C(=O)N(CC)CC)ccc21	198%	162%	174 nM	67%	–	–	–	1350 nM	–	8
